Measurements reported in the supplement of paper PMC12463676, “Small-molecule dissolution of stress granules by redox modulation benefits ALS models” (Nature Chemical Biology, 2025).

Tests used:
[1] = compound: NC(=O)CCCCC1CCSS1 [lipoamide]; experiment: thermal stability z-score vs DMSO; higher = more thermally stabilized by treatment; details: HeLa, lipoamide concentration 100 µM
Experimental: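 Cellular thermal proteome profiling in HeLa cells. Cells were treated with 100 µM lipoamide for 1 h, with or without 1 mM arsenate for a further 1 h, then heated to ten temperatures (37-66.3 °C), and soluble protein was quantified by TMT mass spectrometry relative to 0.1% DMSO controls. The thermal stability score (sum of log2 fold changes minus the abundance score) was transformed to a z-score; mean of n = 3 experiments.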

[2] = compound: O=[As]([O-])(O)O.[K+] [potassium arsenate]; experiment: as above; details: HeLa; arsenate concentration 1 mM
Experimental: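 Cellular thermal proteome profiling in HeLa cells treated with 1 mM arsenate for 1 h (DMSO pretreatment), heated to ten temperatures (37-66.3 °C). Soluble protein was quantified by TMT mass spectrometry relative to DMSO controls; the thermal stability score was transformed to a z-score; mean of n = 3 experiments.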

[3] = arsenate co-treatment: 1 mM arsenate 1 h
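Note: each temperature applied for 3 min, abundance score taken as mean log2 fold change at the two lowest temperatures, z-score obtained by mean subtraction and division by SD.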

Sequence of UniProt Q6GQQ9 (Q6GQQ9 whole entry): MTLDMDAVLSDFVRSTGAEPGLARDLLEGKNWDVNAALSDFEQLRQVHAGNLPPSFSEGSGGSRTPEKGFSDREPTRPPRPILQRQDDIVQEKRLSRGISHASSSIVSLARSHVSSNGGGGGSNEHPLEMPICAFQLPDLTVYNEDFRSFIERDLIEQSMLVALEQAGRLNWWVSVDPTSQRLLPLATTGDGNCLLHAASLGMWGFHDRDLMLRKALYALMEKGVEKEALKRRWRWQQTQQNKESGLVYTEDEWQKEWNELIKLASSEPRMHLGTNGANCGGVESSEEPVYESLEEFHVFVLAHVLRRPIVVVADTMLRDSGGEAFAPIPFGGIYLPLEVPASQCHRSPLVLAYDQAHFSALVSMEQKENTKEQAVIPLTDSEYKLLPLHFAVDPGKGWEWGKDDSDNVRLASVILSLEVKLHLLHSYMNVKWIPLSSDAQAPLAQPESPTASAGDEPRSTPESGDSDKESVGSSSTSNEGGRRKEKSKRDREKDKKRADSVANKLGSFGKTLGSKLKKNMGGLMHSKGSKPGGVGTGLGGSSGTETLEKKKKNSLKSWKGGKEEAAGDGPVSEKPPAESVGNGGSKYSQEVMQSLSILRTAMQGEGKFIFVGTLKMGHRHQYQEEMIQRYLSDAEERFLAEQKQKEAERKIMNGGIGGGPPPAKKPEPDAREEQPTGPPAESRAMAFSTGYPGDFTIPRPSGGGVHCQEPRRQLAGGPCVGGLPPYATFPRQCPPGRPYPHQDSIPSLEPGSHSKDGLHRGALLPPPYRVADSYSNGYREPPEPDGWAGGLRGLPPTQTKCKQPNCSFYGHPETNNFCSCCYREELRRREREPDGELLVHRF
Sequence of UniProt P22059 (P22059 whole entry): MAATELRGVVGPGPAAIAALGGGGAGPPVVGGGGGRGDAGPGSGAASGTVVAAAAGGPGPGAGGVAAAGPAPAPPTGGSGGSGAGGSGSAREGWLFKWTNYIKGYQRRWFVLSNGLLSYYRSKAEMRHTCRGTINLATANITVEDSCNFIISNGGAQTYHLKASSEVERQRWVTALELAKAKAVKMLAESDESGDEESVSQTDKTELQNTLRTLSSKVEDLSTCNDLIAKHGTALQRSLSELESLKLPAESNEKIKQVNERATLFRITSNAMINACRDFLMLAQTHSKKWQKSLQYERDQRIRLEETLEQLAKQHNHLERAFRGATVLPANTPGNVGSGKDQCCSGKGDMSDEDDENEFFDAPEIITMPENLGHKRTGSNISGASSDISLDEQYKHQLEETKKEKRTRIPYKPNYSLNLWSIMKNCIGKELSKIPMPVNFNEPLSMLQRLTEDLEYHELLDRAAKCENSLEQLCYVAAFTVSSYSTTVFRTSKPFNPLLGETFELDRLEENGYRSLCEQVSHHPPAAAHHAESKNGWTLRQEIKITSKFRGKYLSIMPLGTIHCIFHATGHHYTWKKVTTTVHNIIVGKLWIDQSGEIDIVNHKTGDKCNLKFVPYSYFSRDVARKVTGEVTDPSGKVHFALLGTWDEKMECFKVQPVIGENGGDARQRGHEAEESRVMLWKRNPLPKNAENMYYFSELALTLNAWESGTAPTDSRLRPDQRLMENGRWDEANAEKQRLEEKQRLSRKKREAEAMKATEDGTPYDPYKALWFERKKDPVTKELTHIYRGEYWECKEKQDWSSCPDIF
Sequence of UniProt Q9H6K4 (Q9H6K4 whole entry): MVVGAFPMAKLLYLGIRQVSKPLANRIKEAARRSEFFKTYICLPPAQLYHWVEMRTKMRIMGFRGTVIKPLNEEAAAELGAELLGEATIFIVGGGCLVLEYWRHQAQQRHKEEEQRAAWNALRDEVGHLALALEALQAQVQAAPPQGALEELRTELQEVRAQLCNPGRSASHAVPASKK
Sequence of UniProt O14841 (O14841 whole entry): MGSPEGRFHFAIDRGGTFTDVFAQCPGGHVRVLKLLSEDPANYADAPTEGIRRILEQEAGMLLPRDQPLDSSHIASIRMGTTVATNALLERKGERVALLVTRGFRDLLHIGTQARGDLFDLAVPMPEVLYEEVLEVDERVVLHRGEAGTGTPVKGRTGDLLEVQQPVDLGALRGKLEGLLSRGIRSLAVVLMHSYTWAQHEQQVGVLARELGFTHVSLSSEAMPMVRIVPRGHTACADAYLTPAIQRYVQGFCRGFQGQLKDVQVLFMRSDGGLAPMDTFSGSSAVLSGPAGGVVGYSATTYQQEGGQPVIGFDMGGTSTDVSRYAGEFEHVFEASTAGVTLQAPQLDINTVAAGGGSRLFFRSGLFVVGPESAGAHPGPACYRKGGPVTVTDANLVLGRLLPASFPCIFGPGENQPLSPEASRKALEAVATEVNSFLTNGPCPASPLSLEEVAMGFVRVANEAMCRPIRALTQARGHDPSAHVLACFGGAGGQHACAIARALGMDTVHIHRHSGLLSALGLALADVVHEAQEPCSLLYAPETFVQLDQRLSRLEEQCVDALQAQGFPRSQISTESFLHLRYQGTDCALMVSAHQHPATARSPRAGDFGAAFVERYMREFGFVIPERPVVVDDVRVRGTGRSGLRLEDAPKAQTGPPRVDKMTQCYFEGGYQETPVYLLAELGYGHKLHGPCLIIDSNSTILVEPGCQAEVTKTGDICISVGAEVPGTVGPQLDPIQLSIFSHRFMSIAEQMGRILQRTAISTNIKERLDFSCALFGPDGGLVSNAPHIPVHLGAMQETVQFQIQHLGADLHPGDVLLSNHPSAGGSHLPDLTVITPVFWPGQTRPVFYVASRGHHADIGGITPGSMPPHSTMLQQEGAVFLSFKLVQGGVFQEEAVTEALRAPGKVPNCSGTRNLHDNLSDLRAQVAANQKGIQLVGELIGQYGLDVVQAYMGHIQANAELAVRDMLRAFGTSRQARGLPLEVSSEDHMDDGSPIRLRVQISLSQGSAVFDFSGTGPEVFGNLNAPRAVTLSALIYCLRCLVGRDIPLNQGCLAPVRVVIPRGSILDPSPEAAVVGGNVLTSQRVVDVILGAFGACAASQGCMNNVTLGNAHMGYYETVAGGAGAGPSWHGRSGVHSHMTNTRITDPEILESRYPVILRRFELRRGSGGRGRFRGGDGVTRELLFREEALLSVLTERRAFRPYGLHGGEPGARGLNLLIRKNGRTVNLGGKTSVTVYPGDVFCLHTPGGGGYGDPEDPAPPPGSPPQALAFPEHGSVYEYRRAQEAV
Sequence of UniProt Q9H0X9 (Q9H0X9 whole entry): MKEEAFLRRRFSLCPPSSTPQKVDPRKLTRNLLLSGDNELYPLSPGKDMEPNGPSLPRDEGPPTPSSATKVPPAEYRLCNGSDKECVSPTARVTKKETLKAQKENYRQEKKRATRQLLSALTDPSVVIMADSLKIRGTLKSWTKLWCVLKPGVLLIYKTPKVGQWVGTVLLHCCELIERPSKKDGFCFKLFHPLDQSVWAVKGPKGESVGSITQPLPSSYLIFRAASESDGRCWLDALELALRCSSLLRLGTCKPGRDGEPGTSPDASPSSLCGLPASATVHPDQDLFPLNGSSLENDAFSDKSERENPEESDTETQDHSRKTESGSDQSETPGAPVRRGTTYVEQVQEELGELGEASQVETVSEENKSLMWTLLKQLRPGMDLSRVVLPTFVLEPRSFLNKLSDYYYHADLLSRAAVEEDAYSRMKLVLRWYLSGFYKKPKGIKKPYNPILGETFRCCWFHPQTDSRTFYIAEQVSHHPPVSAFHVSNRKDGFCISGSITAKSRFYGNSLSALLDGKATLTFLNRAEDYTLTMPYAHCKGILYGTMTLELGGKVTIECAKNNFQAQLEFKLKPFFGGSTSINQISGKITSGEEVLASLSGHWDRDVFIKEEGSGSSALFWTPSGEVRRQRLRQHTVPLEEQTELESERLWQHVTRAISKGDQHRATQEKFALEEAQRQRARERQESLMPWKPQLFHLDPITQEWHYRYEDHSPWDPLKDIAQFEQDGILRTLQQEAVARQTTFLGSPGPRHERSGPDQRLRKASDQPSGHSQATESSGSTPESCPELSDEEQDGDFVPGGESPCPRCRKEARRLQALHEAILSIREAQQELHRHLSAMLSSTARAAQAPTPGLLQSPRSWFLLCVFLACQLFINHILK
Sequence of UniProt Q92882 (Q92882 whole entry): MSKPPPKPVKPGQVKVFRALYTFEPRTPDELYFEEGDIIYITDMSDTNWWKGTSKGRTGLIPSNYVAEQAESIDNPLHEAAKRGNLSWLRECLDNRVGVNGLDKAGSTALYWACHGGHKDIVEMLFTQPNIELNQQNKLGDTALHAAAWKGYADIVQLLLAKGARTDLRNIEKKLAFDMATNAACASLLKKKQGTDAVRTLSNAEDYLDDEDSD
Sequence of UniProt Q9H4B0 (Q9H4B0 whole entry): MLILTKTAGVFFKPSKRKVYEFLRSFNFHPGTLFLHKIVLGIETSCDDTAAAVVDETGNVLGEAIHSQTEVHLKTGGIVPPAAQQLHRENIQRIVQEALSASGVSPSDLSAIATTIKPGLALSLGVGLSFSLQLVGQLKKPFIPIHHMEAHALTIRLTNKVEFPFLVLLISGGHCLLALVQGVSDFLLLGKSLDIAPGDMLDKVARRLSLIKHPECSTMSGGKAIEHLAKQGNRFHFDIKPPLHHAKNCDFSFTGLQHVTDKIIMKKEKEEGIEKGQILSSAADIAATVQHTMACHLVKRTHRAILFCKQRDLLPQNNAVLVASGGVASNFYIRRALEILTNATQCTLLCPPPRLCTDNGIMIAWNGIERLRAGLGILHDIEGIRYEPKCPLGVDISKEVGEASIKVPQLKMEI
Sequence of UniProt Q9NPF4 (Q9NPF4 whole entry): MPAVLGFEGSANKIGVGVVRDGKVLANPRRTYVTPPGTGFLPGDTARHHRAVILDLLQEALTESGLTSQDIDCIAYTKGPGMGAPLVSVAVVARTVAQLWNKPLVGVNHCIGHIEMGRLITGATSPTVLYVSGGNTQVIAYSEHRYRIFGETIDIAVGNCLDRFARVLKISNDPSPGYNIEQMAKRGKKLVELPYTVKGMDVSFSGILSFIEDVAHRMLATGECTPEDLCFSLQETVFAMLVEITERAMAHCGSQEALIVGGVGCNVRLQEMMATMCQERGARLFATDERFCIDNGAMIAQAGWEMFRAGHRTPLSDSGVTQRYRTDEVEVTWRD

Target	thermal stability z-score [1, 3]	thermal stability z-score ([1]; arsenate co-treatment: none)	thermal stability z-score [2]
OPA1 (UniProt O60313)	-0.697	-0.456	0.749
OPA3 (UniProt Q9H6K4)	1.42	0.732	0.247
OPHN1 (UniProt O60890)	-0.0389	0.0614	0.0261
OPLAH (UniProt O14841)	-0.0343	0.0614	-0.0405
OPTN (UniProt Q96CV9)	-0.94	-0.477	1.01
ORC2 (UniProt Q13416)	0.0753	0.0589	0.0824
ORC3 (UniProt Q9UBD5)	-0.0418	-0.104	-0.00481
ORC4 (UniProt O43929)	-0.121	-0.0936	-0.113
ORC5 (UniProt O43913)	-0.0478	0.0761	-0.065
ORC6 (UniProt Q9Y5N6)	-0.246	-0.0524	-1.11
OS9 (UniProt Q13438)	-3.59	-3.15	0.706
OSBP2 (UniProt Q969R2)	0.192	0.026	-0.124
OSBP (UniProt P22059)	0.983	0.414	-1.62
OSBPL1A (UniProt Q9BXW6)	-1.13	0.611	0.355
OSBPL2 (UniProt Q9H1P3)	-0.0428	0.0817	-0.0657
OSBPL3 (UniProt Q9H4L5)	-1.67	-0.909	-0.969
OSBPL5 (UniProt Q9H0X9)	-0.28	-0.534	-0.386
OSBPL8 (UniProt Q9BZF1)	-1.47	-1.21	-0.00618
OSBPL9 (UniProt Q96SU4)	-0.647	-0.627	0.219
OSBPL10 (UniProt Q9BXB5)	-1.14	-0.711	-1.41
OSBPL11 (UniProt Q9BXB4)	-0.766	-0.267	0.989
OSGEP (UniProt Q9NPF4)	-0.0754	0.487	-0.208
OSGEPL1 (UniProt Q9H4B0)	0.0734	-0.263	-0.494
OSMR (UniProt Q99650)	-1.48	-0.64	1.55
OSTF1 (UniProt Q92882)	-0.217	0.551	0.00115
OTUB1 (UniProt Q96FW1)	0.513	0.823	-0.468
OTUD4 (UniProt Q01804)	0.168	0.183	0.258
OTUD5 (UniProt Q96G74)	-0.721	0.294	1.72

Target	thermal stability z-score [1, 3]	thermal stability z-score ([1]; arsenate co-treatment: none)	thermal stability z-score [2]
OTUD6B (UniProt Q8N6M0)	0.504	-0.85	0.0655
OTUD7B (UniProt Q6GQQ9)	0.194	0.173	0.0572
OTULIN (UniProt Q96BN8)	-0.269	-0.186	-0.452
OVCA2 (UniProt Q8WZ82)	-0.0187	0.0328	-0.0892
OXA1L (UniProt Q15070)	-0.709	-0.369	-0.251
OXCT1 (UniProt P55809)	-0.159	-0.108	-1.12
OXNAD1 (UniProt Q96HP4)	0.221	0.451	-0.691
OXR1 (UniProt Q8N573)	0.209	0.17	0.101
OXSM (UniProt Q9NWU1)	-0.024	0.0818	0.51
OXSR1 (UniProt O95747)	0.903	0.68	-0.408
P3H1 (UniProt Q32P28)	-4.35	-3.23	1.2
P3H2 (UniProt Q8IVL5)	-4.71	-4.05	1.11
P3H4 (UniProt Q92791)	-4.72	-3.94	0.936
P4HA1 (UniProt P13674)	-4.31	-3.57	1.27
P4HA2 (UniProt O15460)	-3.73	-3.49	0.573
P4HB (UniProt P07237)	-0.224	0.393	0.47
P4HTM (UniProt Q9NXG6)	0.0884	-0.262	-0.0889
P1394_HsINTS1|INTS1	-0.0499	-0.0292	0.145
PA2G4 (UniProt Q9UQ80)	0.127	0.183	1.4
PAAF1 (UniProt Q9BRP4)	-0.442	-0.906	-0.478
PABPC1 (UniProt P11940)	0.469	0.549	-0.758
PABPC4 (UniProt Q13310)	0.322	0.911	-0.478
PACS1 (UniProt Q6VY07)	-0.0876	0.134	0.404
PACSIN2 (UniProt Q9UNF0)	0.246	0.134	0.638
PACSIN3 (UniProt Q9UKS6)	0.00517	0.149	-0.842
PAF1 (UniProt Q8N7H5)	0.0739	-0.631	-0.714
PAFAH1B1 (UniProt P43034)	0.258	-0.161	-0.241
